# Laboratory results: patent EP4810052A2, “HCRHR2 SELECTIVE POLYPEPTIDES” (Gubra A/S, priority 2023, dated 2026)
# Starred links: 1 amine or outer side, 2 acyl side, 3 side chain; linkers in the order of their positions; H or OH if unused. Residues, ends and D or L forms follow the SMILES beside them. Groups on a side chain read outwards from the residue. *: point of attachment. C20 diacid = O=C(O)CCCCCCCCCCCCCCCCCCC(=O)*; γGlu = O=C(O)[C@H](CCC(=O)[*:2])N[*:1]; AEEA = NCCOCCOCC(=O)O
# Key:
# [1] = Dynamic Light Scattering (DLS) of peptide oligomerisation/particle formation; format: physicochemical; conditions: average of three replica
# Method: Samples were prepared by dissolving 800 nmol of each peptide in 400 µl 50 mM phosphate pH 8.0 to a concentration of 2000 µM (ca 10 mg/ml). After fully dissolution for 2 hours on a rocking table, samples were adjusted to pH 7.5 and filtrated through a 0.2 µm Whatman Anotop filter. Comparators were commercially available liraglutide drug product (Victoza®, Novo Nordisk) pH 8.2, and an aliquot of this drug product adjusted to pH 6.7. These samples were filtrated through a 0.02 µm Whatman Anotop filter.
# Samples were pipetted as triplicate of 30 µl to an Aurora 384 well microtiter plate, which was centrifuged for 2 minutes at 2200 rpm and then sealed with a Thermo sealing tape 235307. DLS measurements were done in a Wyatt DynaPro platereader III with the following parameters:
# The microtiter plate was incubated in a Grant-bio Thermo Shaker PHMP-4 at 40°C with 700 rpm continuous shaking before subsequent DLS measurements. Data analysis was done using Wyatt Dynamics software ver. 7.10.1.21.
# Samples were prepared and measured as described in procedure. The hydrodynamic radii (Rh) and associated polydispersity (PD) resulting from cumulant analysis (assuming one species) are shown in the Table 8 as averages of three replica. T0 indicates the measurement at time zero after sample preparation; T5 indicates the measurements of five days of incubation as described above.
# [2] = Thioflavin T fibril formation assay of purified peptides; format: physicochemical; conditions: pH 7.5, ThT assay
# Procedure, shortened: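 Compounds at 200 µM in 50 mM phosphate buffer at the stated pH values, or at 200 µM in semaglutide drug product adjusted to pH 7.4, with 4 µM ThT final. Fibrillation followed as ThT fluorescence (ex 450/em 480 nm) over 96 h at 40°C, with 5 min shaking at 700 rpm alternating with 5 min rest; triplicates.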
# hCRHR1 = target: T1, hCRHR1 (Homo sapiens, UniProt P34998); assay: HTRF cAMP assay, determination of hCRHR1 potency (peptide libraries 5 conc., purified peptides 11 conc.); format: cell-based; conditions: purified peptides; CHO-K1 cells stably expressing hCRHR1, cAMP HTRF; read-out: hCRHR1 EC50
# T1 sequence (P34998 24-415): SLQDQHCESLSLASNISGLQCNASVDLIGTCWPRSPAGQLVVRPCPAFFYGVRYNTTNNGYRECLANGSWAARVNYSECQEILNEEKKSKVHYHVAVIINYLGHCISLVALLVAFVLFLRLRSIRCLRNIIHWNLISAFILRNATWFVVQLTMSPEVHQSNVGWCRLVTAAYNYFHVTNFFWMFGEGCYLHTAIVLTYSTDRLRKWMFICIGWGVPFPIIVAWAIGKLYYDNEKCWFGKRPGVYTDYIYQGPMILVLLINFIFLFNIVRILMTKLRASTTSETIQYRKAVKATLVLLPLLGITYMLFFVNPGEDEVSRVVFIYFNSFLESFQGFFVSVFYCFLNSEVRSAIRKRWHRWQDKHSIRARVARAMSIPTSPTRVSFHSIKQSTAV
# Procedure, shortened: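 CHO-K1 cells stably expressing human CRHR1, thawed from frozen stocks just before use, were stimulated in suspension with agonist peptides. cAMP was measured by HTRF competitive immunoassay (cryptate anti-cAMP antibody vs d2-cAMP).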
# [3] = pH 7.5
# [4] = Chemical stability of purified peptides (RP-UHPLC main peak purity loss); format: physicochemical; conditions: pH 7.5, 40°C
# Procedure, shortened: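 Peptides at about 1.0 mg/ml in 50 mM phosphate buffer pH 7.5, or pH-adjusted for the pH series, were incubated at 40 °C for 14 and 28 days. Main-peak purity was taken as main-peak area over total area by RP-UHPLC (UV 215 nm, C8, 50 °C). Purity loss was calculated versus T0.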
# hCRHR2 = target: T2, hCRHR2 (Homo sapiens, UniProt Q13324); assay: HTRF cAMP assay, determination of hCRHR2 potency (peptide libraries 5 conc., purified peptides 11 conc.); format: cell-based
# T2 sequence (Q13324 1-411): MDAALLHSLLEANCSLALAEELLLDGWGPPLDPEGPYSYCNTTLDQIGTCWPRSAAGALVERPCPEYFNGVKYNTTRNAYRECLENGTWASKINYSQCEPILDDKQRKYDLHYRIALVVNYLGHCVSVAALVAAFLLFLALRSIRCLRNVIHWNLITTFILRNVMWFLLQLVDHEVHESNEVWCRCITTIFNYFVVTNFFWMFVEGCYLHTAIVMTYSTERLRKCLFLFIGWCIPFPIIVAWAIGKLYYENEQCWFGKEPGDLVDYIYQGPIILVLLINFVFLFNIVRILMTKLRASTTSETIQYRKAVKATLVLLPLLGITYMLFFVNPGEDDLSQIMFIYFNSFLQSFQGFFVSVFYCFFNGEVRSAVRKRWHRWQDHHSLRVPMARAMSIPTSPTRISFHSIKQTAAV
# Procedure, shortened: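 CHO-K1 cells stably expressing human CRHR2 were thawed from frozen stocks immediately before use and assayed in suspension with agonist peptides. cAMP was measured by time-resolved FRET in a competitive immunoassay between cryptate-labelled anti-cAMP antibody and d2-labelled cAMP. EC50 values came from nonlinear regression, sigmoid variable-slope fit.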
# PK in rats = format: in vivo; parameters: T½ / MRT: unit not given here; conditions: Rat
# Method: Lean male Sprague Dawley rats (RJHan:SD) were obtained from JanVier (JanVier Labs, France) at 7 weeks of age. The animals were pair housed until randomization under a 12/12 h dark-light cycle, light off at 3 PM. Room temperature was controlled to 22°C ± 1°C, with 60 % ± 20% humidity.
# Animals had ad libitum access to regular rodent chow (Altromin 1324, Brogaarden, Denmark) and tap water.
# After 2 weeks of acclimatization, the animals were single housed and randomized into treatment groups (n = 3 per group) based on body weight on study day -3. On study day 1, animals were dosed 50 nmol/kg IV and SC in combination of two peptides. Plasma samples were collected for PK analysis at times 0.17, 1, 3, 6, 24, 30, 48, 72 and 96 hours post dosing. Plasma samples were analyzed using LC-MSMS and PK parameters were estimated by Non-Compartmental Analysis (NCA).
# [5] = T0, time zero after sample preparation
# [6] = T5, five days incubation at 40°C with continuous shaking
Compound,"PD (%) [1, 5]","Rh (nm) [1, 5]","PD (%) [1, 6]","Rh (nm) [1, 6]",Fibrillation (pH 7.5) [2],EC50 (hCRHR1),"Solubility pH 7.5, target conc. =10 mg/mL (measured mg/mL) [3]","Chemical stability at pH 7.5 after 14 days at 40°C (% degradation) ([4]; 14 days, first value of cell)","Chemical stability at pH 7.5 after 28 days at 40°C (% degradation) ([4]; 28 days, second value of cell)",Selectivity ratio (hCRHR1/ hCRHR2) (hCRHR2; hCRHR1-EC50/hCRHR2-EC50),"EC50 (hCRHR2; purified peptides, CHO-K1 cells stably expressing hCRHR2, cAMP HTRF, read-out: hCRHR2 EC50)",MRT (PK in rats),T½ (PK in rats)
Liraglutide pH 8.2,1.4%,2.1 nm,3.8%,2.1 nm,–,–,–,–,–,–,–,–,–
CC[C@H](C)[C@H](N)C(=O)N[C@H](C(=O)N[C@@H](CC(C)C)C(=O)N[C@@H](CO)C(=O)N[C@@H](CC(C)C)C(=O)N[C@@H](CC(=O)O)C(=O)N[C@H](C(=O)N1CCC[C@H]1C(=O)N[C@H](C(=O)NCC(=O)N[C@@H](CC(C)C)C(=O)N[C@@H](CC(C)C)C(=O)N[C@@H](CCC(N)=O)C(=O)N[C@H](C(=O)N[C@@H](CC(C)C)C(=O)N[C@@H](CC(C)C)C(=O)N[C@@H](CCC(=O)O)C(=O)N[C@@H](CCC(N)=O)C(=O)N[C@@H](C)C(=O)N[C@@H](CCCNC(=N)N)C(=O)N[C@@H](C)C(=O)N[C@@H](CCCNC(=N)N)C(=O)N[C@@H](C)C(=O)N[C@@H](C)C(=O)N[C@@H](CCCNC(=N)N)C(=O)N[C@@H](CCC(=O)O)C(=O)N[C@@H](CCC(N)=O)C(=O)N[C@@H](C)C(=O)N[C@@H](CCCCNC(=O)COCCOCCNC(=O)COCCOCCNC(=O)CC[C@H](NC(=O)CC[C@H](NC(=O)CCCCCCCCCCCCCCCCCCC(=O)O)C(=O)O)C(=O)O)C(=O)N[C@H](C(=O)N[C@@H](CC(N)=O)C(=O)N[C@H](C(=O)N[C@@H](CCC(=O)O)C(=O)N[C@H](C(=O)N[C@@H](CC(C)C)C(=O)N[C@@H](C)C(=O)N[C@@H](CCC(=O)O)C(=O)N[C@H](C(N)=O)C(C)C)[C@@H](C)CC)C(C)C)[C@@H](C)O)[C@@H](C)CC)[C@@H](C)CC)C(C)C)C(C)C [SEQ ID NO: 14] (H-IVLSLDVPIGLLQILLEQARARAAREQAK([AEEA-AEEA-γGlu-γGlu-C20 diacid])TNVEILAEV-NH2),–,–,–,–,No,> 5000 nM,9.2 mg/mL,-0.3%,-1.2%,> 1000,5 nM,6.1,5.1
liraglutide,6.0%,2.5 nm,Multimodal,5.6 nm,–,–,–,–,–,–,–,–,–
